Assay results reported in article PMC10600239, “Selective MCL-1 inhibitor ABBV-467 is efficacious in tumor models but is associated with cardiac troponin increases in patients” (Communications Medicine, 2023).
Values joined by “and” are separate entries in the source; they are usually repeats but may differ in a detail not shown here. Identical values can stand only once.

Tested on: AMO-1 xenografts
Test: AMO-1 xenograft efficacy (tumor volume, body weight)
Type: in vivo, mouse
Set-up: key to Anti-tumor Activity vs. AMO-1 (DSMZ), Median / Anti-tumor Activity vs. AMO-1 (DSMZ), individual animal / Anti-tumor Activity vs. AMO-1 (DSMZ), Mean: tumor volume in mm^3 (length × width^2/2)
Description: All animal studies were conducted in accordance with the guidelines approved by the Institutional Animal Care and Use Committees of AbbVie. The research protocol was approved by In Vivo Pharmacology at AbbVie prior to study initiation but was not publicly registered or disclosed. Female C.B-17 SCID-beige mice (AMO-1, OPM-2, NCI-H929, and OCI-AML2 xenografts) and female NSG mice (MV4-11-Red.Fluc systemic) were purchased from Charles River Laboratories (Wilmington, MA). Animals were housed in a light cycle-controlled room with HEPA filtration at 22 °C. Animals had nesting and climbing cage topper as the primary environmental enrichment. Animals were inoculated subcutaneously in the right flank with 5 × 10^6 (AMO-1, OPM-2, NCI-H929, and OCI-AML2) or intravenous (IV) with 5 × 10^6 (MV4-11-Red.Fluc). The inoculation volume (0.2 mL) comprised a 50:50 mixture of cells in growth media and Matrigel (BD Biosciences) for subcutaneous injections and 100% phosphate-buffered saline for IV administration. All cell lines used in this publication were authenticated using IDEXX for STR profiling as well as their IMPACT and human IMPACT panels for pathogen screening. Electronic calipers were used to measure the length and width of each tumor 2 to 3 times per week. Tumor volume was estimated by applying the following equation: volume = length × width^2/2. All groups remained blinded during measurements and dosing; only veterinary staff were aware of group identity. When tumors reached approximately 200 mm^3, mice were randomized by match and distributed into treatment and control groups. All xenograft trials were conducted using 5 to 10 mice per group, and all mice were ear tagged and monitored individually throughout the studies. […] Tumor burden in the systemic MV4-11-Red.Fluc experiment was measured using an IVIS® spectrum from PerkinElmer by taking the total photon flux of the entire dorsal side of an individual mouse. […] A background control mouse that was tumor naive but received D-Luciferin was placed in the upper left corner of each image. The total flux from this animal was subtracted from the total flux of each animal present in the image.
For in vivo studies, maximal tumor growth inhibition (TGI) was calculated as the greatest treatment response using the following equation: Maximal TGI = (1 − mean tumor volume of the treated group/mean tumor volume of the vehicle control group) × 100. The tumor growth delay (TGD) percentage was determined as the percentage increase of the median time period for the treatment group to reach an arbitrary tumor volume of 1000 mm^3 relative to the vehicle control group. […] A power analysis was conducted using historical data to determine the number of animals required to yield significance of 0.05 at a 30% difference. […] Data from experiments in vivo were analyzed using the student’s t-test for TGI values and the Mann–Whitney U test for TGD using Excel and GraphPad Prism. Fisher’s exact test was used to probe significance of differences in response frequency.

[1] = 6.25 mg/kg IV QDx1, Day 13 (day before dosing begins)
[2] = 6.25 mg/kg Q7Dx2 IV, SCID-beige female mice, Day 21
[3] = 6.25 mg/kg Q7Dx2 IV, SCID-beige female mice, Day 24

Cc1c(Cl)c2c(Cl)c(C)c1-c1c(-c3ccc(F)cc3)sc3ncnc(c13)O[C@@H](C(=O)O)Cc1cc(ccc1OCc1ccnc(-c3ccc(OC[C@H]4COCCO4)cc3)n1)OC[C@@H](CN1CCN(C)CC1)O2 [Compound A-1747745.0]
Anti-tumor Activity vs. AMO-1 (DSMZ), Median (6.25 mg/kg IV QDx1, day 23): 225.89
Group Mean, Body Weight (6.25 mg/kg IV QDx1, day 23): 22.00 g
Anti-tumor Activity vs. AMO-1 (DSMZ), Mean (6.25 mg/kg IV QDx1, day 26): 454.97
Anti-tumor Activity vs. AMO-1 (DSMZ), Median (6.25 mg/kg IV QDx1, day 26): 392.97
Anti-tumor Activity vs. AMO-1 (DSMZ), Mean (6.25 mg/kg IV QDx1, day 28): 690.68
Anti-tumor Activity vs. AMO-1 (DSMZ), Median (6.25 mg/kg IV QDx1, day 28): 578.26
Group Mean, Body Weight (6.25 mg/kg IV QDx1, day 28): 22.25 g
Anti-tumor Activity vs. AMO-1 (DSMZ), Mean (6.25 mg/kg IV QDx1, day 30): 882.20
Anti-tumor Activity vs. AMO-1 (DSMZ), Median (6.25 mg/kg IV QDx1, day 30): 791.67
Anti-tumor Activity vs. AMO-1 (DSMZ), Mean (6.25 mg/kg IV QDx1, day 34): 1592.98
Anti-tumor Activity vs. AMO-1 (DSMZ), Median (6.25 mg/kg IV QDx1, day 34): 1465.20
Anti-tumor Activity vs. AMO-1 (DSMZ), Mean (6.25 mg/kg IV QDx1, day 36): 1754.60
Anti-tumor Activity vs. AMO-1 (DSMZ), Median (6.25 mg/kg IV QDx1, day 36): 1695.89
Xenograft AMO-1 (DSMZ) tumor volume Day 13, Mean [1]: 216.25 mm³
Xenograft AMO-1 (DSMZ) tumor volume Day 13, Median [1]: 216.39 mm³
% T/C (mean) [1]: 100.07%
% T/C (median) [1]: 100.10%
Xenograft AMO-1 (DSMZ) (mm³) Day 13, individual animals (6.25 mg/kg IV QDx1, SCID-beige female mice, Day 13 (randomization, day before dosing begins)): 219 mm³ and 211 mm³ and 216 mm³ and 221 mm³ and 217 mm³ and 214 mm³ and 224 mm³ and 208 mm³
Mortality Observation Day 32 (6.25 mg/kg Q7Dx2 IV, AMO-1 (DSMZ) xenograft, SCID-beige female mice, per animal): EUTV (6×) and GRPX
% T/C (mean) (6.25 mg/kg Q7Dx2 IV, Day 13): 101.00%
% T/C (median) (6.25 mg/kg Q7Dx2 IV, Day 13): 98.08%
% T/C (mean) (6.25 mg/kg Q7Dx2 IV, Day 19): 30.07%
% T/C (median) (6.25 mg/kg Q7Dx2 IV, Day 19): 31.46%
% T/C (mean) (6.25 mg/kg Q7Dx2 IV, Day 21): 29.54%
% T/C (median) (6.25 mg/kg Q7Dx2 IV, Day 21): 27.04%
% T/C (mean) (6.25 mg/kg Q7Dx2 IV, Day 24): 22.09%
% T/C (median) (6.25 mg/kg Q7Dx2 IV, Day 24): 20.32%
% T/C (mean) (6.25 mg/kg Q7Dx2 IV, Day 26): 21.67%
% T/C (median) (6.25 mg/kg Q7Dx2 IV, Day 26): 14.15%
% T/C (mean) (6.25 mg/kg Q7Dx2 IV, Day 28): 23.23%
% T/C (median) (6.25 mg/kg Q7Dx2 IV, Day 28): 13.94%
Xenograft AMO-1 (DSMZ) Day 19 Mean (6.25 mg/kg Q7Dx2 IV, SCID-beige female mice, Day 19, group mean tumor volume): 118.80 mm³
Xenograft AMO-1 (DSMZ) Day 19 Median (6.25 mg/kg Q7Dx2 IV, SCID-beige female mice, Day 19, group median tumor volume): 115.27 mm³
Xenograft AMO-1 (DSMZ) (mm³) Day 19, individual animals (6.25 mg/kg Q7Dx2 IV, SCID-beige female mice, Day 19, individual tumor volumes): 119 mm³ and 199 mm³ and 123 mm³ and 80 mm³ and 92 mm³ and 115 mm³ and 104 mm³
Xenograft AMO-1 (DSMZ) Day 21, Mean [2]: 190.88 mm³
Xenograft AMO-1 (DSMZ) Day 21, Median [2]: 163.99 mm³
Xenograft AMO-1 (DSMZ) tumor volume Day 21, individual animals [2]: 209 mm³ and 370 mm³ and 179 mm³ and 144 mm³ and 116 mm³ and 164 mm³ and 155 mm³
Xenograft AMO-1 (DSMZ) (mm³) Day 24, individual animals [3]: 184 mm³ and 451 mm³ and 200 mm³ and 190 mm³ and 174 mm³ and 138 mm³ and 133 mm³
Xenograft AMO-1 (DSMZ) tumor volume Day 24, Mean [3]: 210.06 mm³
